The values below come from paper PMC10144242, “Design, Synthesis, In Vitro, and In Silico Insights of 5-(Substituted benzylidene)-2-phenylthiazol-4(5H)-one Derivatives: A Novel Class of Anti-Melanogenic Compounds” (Molecules, 2023).

In data set [1] the test system is B16F10 cells. As to the kind of experiment: Cell viability / cytotoxicity, EZ-Cytox assay. In kind it is cell-based, murine. The settings on record: concentrations ≤ 20 µM, 48 and 72 h. As for the experimental part: Before investigating their inhibitory effects on B16F10 cells, the viability of (Z)-BPT derivatives 1–3 was examined in B16F10 cells.
To determine the cell viability, six different concentrations (0, 1, 2, 5, 10, and 20 µM) of (Z)-BPT derivatives 1–3 were used, and the results were examined at two time points (48 and 72 h). […] Based on the cell viability results, the concentrations for cell-based assays related to the melanin production level and cellular tyrosinase activity were determined.
Cytotoxicity studies of (Z)-BPT derivatives 1–3 were performed on B16F10 melanoma cells using the previously established EZ-Cytox (EZ-3000, DoGenBio, Seoul, Republic of Korea) test, and cytotoxicity studies of (Z)-BPT derivatives 1–3 were conducted on B16F10 melanoma cells. Briefly, B16F10 cells were seeded in a 96-well plate at a density of 1 × 10^4 cells/well and cultivated at 37 °C for 24 h in a humid environment with 5% CO2. […] The cells were then incubated at 37 °C for 2 h after 10 µL of the EZ-Cytox solution had been added to each well. To determine the cell viability, the absorbance of each well was measured at 450 nm using a microplate reader (VersaMax^TM, Molecular Devices, Sunnyvale, CA, USA). Each assay was performed in triplicates.
Figure 6 Effects of (Z)-BPT derivatives 1–3 on cell viability in B16F10 cells. Cytotoxic effects were measured using an EZ-Cytox assay at six different concentrations (0, 1, 2, 5, 10, and 20 µM) of 1–3. (A) Derivative 1; (B) Derivative 2; (C) Derivative 3. *** p < 0.001 for non-treated cells vs. cells treated with 3.

For data set [2], the system named is B16F10 cells. As to the kind of experiment: Melanin content (anti-melanogenesis) assay in IBMX/α-MSH-stimulated cells. The format is cell-based, murine. The settings on record: 72 h; for effect on cellular melanin content: B16F10, 20 µM, IBMX + α-MSH; for effect on cellular melanin content increased by stimulators: B16F10, 5, 10, 20 µM, IBMX 200 µM + α-MSH 1 µM. The protocol: Cells were exposed to four different concentrations (0, 5, 10, and 20 µM) of 1 and 2 prior to treatment with stimulators (3-isobutyl-1-methylxanthine (IBMX, 200 µM), and α-melanocyte stimulating hormone (α-MSH, 1 µM)). After 72 h of incubation, the effects of 1 and 2 on melanin production were determined. Cellular melanin levels were assessed by measuring melanin levels in cell lysates.
The melanin content assay standard procedure was used to investigate the anti-melanogenic effect of (Z)-BPT derivatives 1 and 2 with a few minor modifications. Briefly, B16F10 melanoma cells were seeded in each well of a 6-well plate at a density of 1 × 10^5 cells/well and allowed to adhere to the well bottom under conditions that were identical to those used for cell culture. […] For 72 h, B16F10 cells were incubated at 37 °C in a humid environment containing 5% CO2 after being treated with IBMX and α-MSH. To determine the intracellular melanin content, B16F10 cells stimulated with IBMX and α-MSH for 72 h were rinsed twice with PBS and incubated in 200 µL 1N-NaOH solution including 10% dimethyl sulfoxide (DMSO) at 60 °C. The cell lysates were transferred to a 96-well plate after an hour of incubation, and the absorbance of the melanin content was calculated using a VersaMax^TM microplate reader (Molecular Devices, Sunnyvale, CA, USA) to determine intracellular melanin levels. Each experiment was performed independently in triplicates.
Figure 7 Effects of (Z)-BPT derivatives 1 and 2 on cellular melanin levels in B16F10 cells. […] (A) Derivative 1 and (B) derivative 2.

In another data set the target is mushroom tyrosinase (Agaricus bisporus, UniProt C7FF04). As to the kind of experiment: Kinetic studies on mushroom tyrosinase inhibition (Lineweaver–Burk and Dixon plots, L-DOPA substrate). Details: purchased Sigma-Aldrich. To be noted: for Ki: Dixon plots, read-out: Ki (inhibition constant); for Inhibition type: Lineweaver–Burk plot. In kind it is biochemical. As for the experimental part: As depicted in Figure 2, the mechanisms of tyrosinase inhibition were analyzed using Lineweaver–Burk plots. […] Each of the four straight lines produced at each inhibitor concentration converged to a single point on the y-axis. […] In contrast, in derivative 3, four straight lines generated at each inhibitor concentration intersected at a point in the second quadrant. According to the Lineweaver–Burk plot, as the inhibitor concentration increased, the Vmax value of 3 decreased, but the KM value increased.
mushroom tyrosinase, sequence (C7FF04 1-392 limits assumed): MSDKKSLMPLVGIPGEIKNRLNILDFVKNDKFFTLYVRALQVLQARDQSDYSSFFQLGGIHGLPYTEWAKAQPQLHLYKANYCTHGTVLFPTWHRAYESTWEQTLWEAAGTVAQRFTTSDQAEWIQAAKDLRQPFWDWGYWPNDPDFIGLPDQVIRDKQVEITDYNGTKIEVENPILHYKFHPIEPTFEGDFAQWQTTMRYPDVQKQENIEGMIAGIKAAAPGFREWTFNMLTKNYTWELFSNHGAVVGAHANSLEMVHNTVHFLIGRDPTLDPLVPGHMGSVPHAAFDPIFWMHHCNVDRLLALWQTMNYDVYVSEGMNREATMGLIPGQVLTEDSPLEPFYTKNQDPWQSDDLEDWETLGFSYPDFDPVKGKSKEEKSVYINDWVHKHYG
To determine the Ki (inhibition constant) values of (Z)-BPT derivatives 1–3, Lineweaver–Burk plots for 1–3 were transformed into the corresponding Dixon plots (Figure 3). Each Dixon plot obtained from each Lineweaver–Burk plot produced four straight lines that intersected at one point in the second quadrant. The vertical lines from the merge point to the x-axis provide the Ki value of each (Z)-BPT derivative.
To determine the mode of action, Lineweaver–Burk plots of (Z)-BPT derivatives 1–3 were acquired. In brief, 10 µL of (Z)-BPT derivatives 1–3 (final concentrations:0, 3, 6, or 12 µM for 1; 0, 0.05, 0.1, or 0.2 µM for 2; 0, 2.5, 5, or 10 µM for 3) was added to a 96-well plate containing a substrate mixture (170 µL) consisting of an aqueous solution of L-dopa at final concentrations of 0.5, 1.0, 2.0, or 4.0 mM and 14.7 mM potassium phosphate buffer (pH 6.5), and a mushroom tyrosinase aqueous solution (20 µL, 20 units). Using a microplate reader (VersaMax^TM, Molecular Devices, Sunnyvale, CA, USA) to measure the increase in absorbance at a wavelength of 492 nm (ΔOD492/min), the initial rate of dopachrome synthesis in the reaction mixture was estimated. Using five different concentrations of L-dopa, Lineweaver–Burk plots (inverse of the response rate (1/V) vs. inverse of L-dopa concentration (1/(S)) were created. The convergence points of the four plot lines were used to define the mode of action of tyrosinase inhibition.
Figure 2 Lineweaver–Burk plots for the inhibition of mushroom tyrosinase activity by (Z)-BPT derivatives 1–3. […] Three independent experiments with five different concentrations (0.5, 1, 2, 4, and 8 mM) of an L-DOPA substrate were used to measure the augmented dopachrome optical density per minute at 492 nm. The data are shown as mean values of 1/V (an inverse of that optical density per minute). The (Z)-BPT derivatives were used at concentrations of 0 (filled circles), 3 (unfilled circles), 6 (filled triangles), and 12 µM (unfilled triangles) for 1; 0 (filled circles), 0.05 (unfilled circles), 0.1 (filled triangles), and 0.2 µM (unfilled triangles) for 2; and 0 (filled circles), 2.5 (unfilled circles), 5 (filled triangles), and 10 µM (unfilled triangles) for 3. Each experiment was run independently in triplicates.
Figure 3 Dixon plots for the inhibition of mushroom tyrosinase activity by (Z)-BPT derivatives 1–3. The Ki values of (Z)-BPT derivatives 1–3 were obtained from the absolute values of the x-coordinate where four straight lines converged at one point. Three independent experiments with four different concentrations of (Z)-BPT derivatives were conducted to measure the augmented dopachrome optical density per minute at 492 nm. The data are shown as the mean values of 1/V (an inverse of that optical density per minute). The (Z)-BPT derivatives were used at concentrations of 0, 3, 6, and 12 µM for 1; 0, 0.05, 0.1, and 0.2 µM for 2; and 0, 2.5, 5, and 10 µM for 3. The experiments were performed at four different concentrations (0.5, 1, 2, and 4 mM) of L-DOPA. Each experiment was run independently in triplicates.

With `O=C1N=C(c2ccccc2)S/C1=C\c1ccc(O)cc1` [Compound 1, (Z)-5-(4-Hydroxybenzylidene)-2-phenylthiazol-4(5H)-one], the cytotoxicity result in the data set on B16F10 cells [1] is on record as “did not show any perceptible cytotoxicity”. In the data set on B16F10 cells [2], the “effect on cellular melanin content” value is reported as “more effectively than kojic acid”; the “effect on cellular melanin content increased by stimulators” value was “significantly and dose-dependently diminished”. For the same compound, at mushroom tyrosinase, the Ki is 8.89 µM and the Inhibition type result is “Competitive”.
For `O=C1N=C(c2ccccc2)S/C1=C\c1ccc(O)cc1O` [Compound 2, (Z)-5-(2,4-Dihydroxybenzylidene)-2-phenylthiazol-4(5H)-one], in the data set on B16F10 cells [1], the cytotoxicity entry was “did not show any perceptible cytotoxicity”. Besides, in the data set with B16F10 cells [2], the “effect on cellular melanin content” value is recorded as “below those of the non-treated control”; the “effect on cellular melanin content increased by stimulators” value is “significantly and dose-dependently diminished”. At mushroom tyrosinase, the inhibitory constant (Ki) came out at 0.1 µM and the Inhibition type entry is given as “Competitive”.

A word on the Ki: it is the equilibrium dissociation constant of an inhibitor or competing ligand from its target.
